This note sets out measurements from patent US8481553B2, “Antimetastatic compounds” (Brigham Young University, priority 2010, dated 2013).

Molecules are shown by their SMILES. A value given as a limit tells only on which side of the number the result lay.

One experiment deals with MDCK cells. Nature of the experiment: HGF-induced epithelial-mesenchymal transition / migration of MDCK cells on transwell filters (crystal violet densitometry). To be noted: Canis lupus familiaris, MDCK; test compound 10 μM, then HGF, 24 hours; percentage value like the untreated controls (unstimulated cells = maximal effect, HGF treated cells without compound = nil effect). It counts as cell-based. On the procedure:
MDCK cells were seeded at confluency into the wells of a transwell filter in DMEM with 10% fetal bovine serum. Cells were cultured for 24 hours. Test compounds, dissolved in DMSO, were added to each test well to a 10 μM final concentration, and then hepatocyte growth factor (HGF) was then added. The MDCK cells were cultured for 24 hours. Concurrently, controls treated with and without HGF and with no test compounds were also prepared.
After post-HGF addition culturing, transwell filters were prepared by repeated washing using ice cold PBS. The cells were then fixed with paraformaldehyde (3.7%) on ice for 15 minutes to the filters. After fixation, the transwell filters were washed repeatedly with PBS followed by staining with crystal violet for 15 minutes. The transwell filters were washed again with distilled water.
The upper surface of the transwell filters were swabbed using a cotton-tipped probe. The filters were photographed using a gel documentation system. Densitometry measurements were made on the test samples and compared with control samples.
As a reminder, the inhibition is the change of the read-out against control, counted positive when it falls. For `C=CCc1ccccc1OCC(=O)N/N=C/c1cccc(CC=C)c1O` [Compound 10], the inhibition at 10 µM was found to be 44.8%.

As to `O=C1c2cccc3cccc(c23)C(=O)N1CCCc1nc2sc3c(c2c(=O)[nH]1)CCCC3` [Compound A-16], the inhibition at 10 µM stood at 70.1%.

In the case of `C=CCOc1ccccc1/C=N/NC(=O)COc1ccccc1CC=C` [Compound 9], the inhibition at 10 µM came out at 49.5%.

Consider `O=c1[nH]c(NCc2ccccc2)nc2sc3c(c12)CCCC3` [Compound A-2], for which testing at 10 µM gave an inhibition of 92.2%.

Turning to `COc1cc(/C=C/c2ccc3cccc(OCc4ccccc4Cl)c3n2)cc(OC)c1OC` [Compound B-17], the inhibition at 10 µM was determined as 100%.

As for `O=c1[nH]c(SC/C=C/c2ccccc2)nc2sc3c(c12)CCCC3` [Compound A-13], the inhibition at 10 µM was found to be 90.5%.

The compound `COc1cc(/C=C/c2ccc3cccc(OC)c3n2)cc(Br)c1OC` [Compound B-9] returned an inhibition at 10 µM above 5%.

Compound `CCOc1cc(/C=C/c2ccc3cccc(OC(=O)CC)c3n2)cc(Br)c1OC` [Compound B-13] registered an inhibition at 10 µM of 62.2%.

Turning to `COc1ccc(/C=C/c2ccc3cccc(O)c3n2)cc1C` [Compound B-33], the inhibition at 10 µM amounted to 90.7%.

`COc1cccc2ccc(/C=C/c3ccc(Br)cc3)nc12` [Compound B-11] had an inhibition at 10 µM of 61.4%.

`C=CCc1ccccc1OCC(=O)N/N=C/c1cccc(Oc2ccccc2)c1` [Compound 3] yielded an inhibition at 10 µM of 70.9%.

Compound `O=C(CSc1nc2sc3c(c2c(=O)n1Cc1ccccc1)CCCC3)N1CCCC1` [Compound A-9] displayed an inhibition at 10 µM of 50%.

For the compound `Oc1c(Br)cc(Cl)cc1/C=C/c1ccc2cccc(O)c2n1` [Compound B-27], the inhibition at 10 µM was determined as 100%.

The compound `COc1ccc(/C=C/c2ccc3cccc(OC)c3n2)cc1Cl` [Compound B-6] returned an inhibition at 10 µM above 5%.

In turn, `CC(C)Oc1ccc(/C=C/c2ccc3cccc(O)c3n2)cc1` [Compound B-31] returned an inhibition at 10 µM of 100%.

Take `CCOc1ccc(/C=C/c2ccc3cccc(OC)c3n2)cc1OC` [Compound B-5]: the inhibition at 10 µM is above 5%.

In turn, `COc1cccc(/C=C/c2ccc3cccc(O)c3n2)c1` [Compound B-34] displayed an inhibition at 10 µM of 51.8%.

Compound `COc1cc(Br)cc(/C=C/c2ccc3cccc(OC)c3n2)c1OC` [Compound B-23] displayed an inhibition at 10 µM of 72.8%.

With `COc1cc(/C=C/c2ccc3cccc(OC)c3n2)cc(OC)c1OC` [Compound B-1], the inhibition at 10 µM came out at 96.8%.

`CCOc1cccc(/C=C/c2ccc3cccc(OC)c3n2)c1OC(C)=O` [Compound B-15] gave an inhibition at 10 µM of 53.1%.

Take `N#Cc1ccccc1OCC(=O)N/N=C/c1ccccc1` [Compound 6]: the inhibition at 10 µM came to 44.2%.

`Cc1noc(C)c1CSc1nc2sc3c(c2c(=O)n1-c1ccccc1)CCCC3` [Compound A-7] had an inhibition at 10 µM of 31.3%.

With `COc1cc(OC)c(OC)cc1/C=C/c1ccc2cccc(OC)c2n1` [Compound B-12], at 10 µM the inhibition was 50.6%.

In the case of `COc1cc(/C=C/c2ccc3cccc(OCc4ccccc4)c3n2)ccc1OC(C)=O` [Compound B-18], the inhibition at 10 µM turned out to be 100%.

Consider `COc1cc(/C=C/c2ccc3cccc(O)c3n2)ccc1O` [Compound B-3], for which the inhibition at 10 µM was above 5%.

Regarding `COc1cc(/C=C/c2ccc3cccc(O)c3n2)cc(OC)c1O` [Compound B-36], the inhibition at 10 µM was below 5%.

`CCc1ccc(/C=C/c2ccc3cccc(O)c3n2)cc1` [Compound B-26] yielded an inhibition at 10 µM of 81.1%.

Turning to `N#Cc1ccccc1OCC(=O)N/N=C/c1cccc(Br)c1` [Compound 12], the inhibition at 10 µM turned out to be 67.7%.

`O=c1[nH]c(SCc2ccccc2)nc2sc3c(c12)CCc1ccccc1-3` [Compound A-5] gave an inhibition at 10 µM of 77.3%.

As for `N#Cc1ccccc1OCC(=O)N/N=C/c1ccc(Cl)cc1` [Compound 7], testing at 10 µM gave an inhibition of 86.8%.

Regarding `O=C(O)CCc1nc2sc3c(c2c(=O)[nH]1)CCCC3` [Compound A-12], the inhibition at 10 µM stood at 100%.

As to `COc1cc(Cl)cc(/C=C/c2ccc3cccc(OC)c3n2)c1OC(C)=O` [Compound B-22], the inhibition at 10 µM was 98.1%.

With `O=C1c2cccc3cccc(c23)C(=O)N1CCc1nc2sc3c(c2c(=O)[nH]1)CCCC3` [Compound A-3], 10 µM produced 73.4% inhibition.

As to `Cc1noc(C)c1CSc1nc2[nH]ncc2c(=O)n1-c1ccccc1` [Compound A-10], the inhibition at 10 µM stood at 63.1%.

Take `C=CCc1ccccc1OCC(=O)N/N=C/c1ccc(C)cc1C` [Compound 1]: 10 µM produced 97% inhibition.

With `C=C(C)CSc1nc2sc3c(c2c(=O)[nH]1)CCCC3` [Compound A-14], 10 µM produced 100% inhibition.

In the case of `Oc1cccc2ccc(/C=C/c3ccc4c(c3)OCO4)nc12` [Compound B-30], the inhibition at 10 µM was found to be 94.4%.

For `N#Cc1ccccc1OCC(=O)N/N=C/c1ccc([N+](=O)[O-])cc1` [Compound 11], testing at 10 µM gave an inhibition of 83.7%.

Take `COc1c(OC(C)=O)ccc(/C=C/c2ccc3cccc(OC)c3n2)c1[N+](=O)[O-]` [Compound B-14]: testing at 10 µM gave an inhibition of 61.1%.

For the compound `N#Cc1ccccc1OCC(=O)N/N=C/c1ccccc1O` [Compound 5], the inhibition at 10 µM was 41.1%.

For the compound `COc1cc(/C=C/c2ccc3cccc(O)c3n2)cc(OC)c1OC` [Compound B-35], the inhibition at 10 µM was below 5%.

As for `CCOc1ccccc1OCC(=O)N/N=C/c1ccc(O)c(O)c1` [Compound 15], the inhibition at 10 µM is 72.8%.

`O=c1[nH]c(/C=C/c2ccccc2)nc2sc3c(c12)CCCC3` [Compound A-4] had an inhibition at 10 µM of 90.8%.

In the case of `CCOC(=O)/C=C/CSc1nc2sc3c(c2c(=O)[nH]1)CCCC3` [Compound A-15], the inhibition at 10 µM was 71.3%.

In turn, `N#Cc1ccccc1OCC(=O)N/N=C/c1c(Cl)cccc1Cl` [Compound 13] came in with an inhibition at 10 µM of 86%.

Regarding `COc1cc(/C=C/c2ccc3cccc(OC)c3n2)ccc1OC(C)=O` [Compound B-7], the inhibition at 10 µM was above 5%.

Compound `Cc1nc(CSc2nc3[nH]ncc3c(=O)n2-c2ccccc2)cs1` [Compound A-8] displayed an inhibition at 10 µM of 49.6%.

`CCOc1cc(/C=C/c2ccc3cccc(O)c3n2)ccc1OC` [Compound B-2] registered an inhibition at 10 µM above 5%.

Turning to `N#Cc1ccccc1OCC(=O)N/N=C/c1ccc(Cl)cc1Cl` [Compound 8], at 10 µM the inhibition was 55.1%.

The compound `COc1cc(/C=C/c2ccc3cccc(OCc4ccc(Cl)cc4)c3n2)cc(OC)c1OC(C)=O` [Compound B-25] returned an inhibition at 10 µM of 78.8%.

For `O=c1[nH]c(CCc2ccccc2)nc2sc3c(c12)CCCC3` [Compound A-1], 10 µM produced 96.9% inhibition.

The compound `CCOc1ccccc1OCC(=O)N/N=C/c1ccc(O)cc1O` [Compound 4] had an inhibition at 10 µM of 32.3%.

Still in this experiment, the particulars now being: test compound 10 μM, then HGF, 24 hours; percentage value like the untreated controls (unstimulated cells = maximal effect, HGF treated cells without compound = nil effect).
Consider `COc1ccccc1/C=N/NC(=O)COc1ccccc1OC` [Compound 32], for which the “Assay Value” was below 5%.

As to `Cc1cc(C)c(OCC(=O)N/N=C/c2ccccc2)c(C)c1` [Compound 17], the “Assay Value” was below 5%.

For the compound `Cc1ccccc1OCC(=O)N/N=C/c1ccc(F)cc1` [Compound 26], the “Assay Value” is below 5%.

For `Cc1ccc(OCC(=O)N/N=C/c2ccccc2)cc1` [Compound 20], the “Assay Value” is below 5%.

With `O=C(CSc1nc2sc3c(c2c(=O)n1Cc1ccccc1)CCCC3)N1CCCC1` [Compound A-21], the “Assay Value” is below 5%.

For the compound `COc1ccc(/C=N/NC(=O)COc2ccccc2C)cc1` [Compound 19], the “Assay Value” is given as below 5%.

As to `COc1ccccc1OCC(=O)N/N=C/c1ccc(Cl)cc1` [Compound 33], the “Assay Value” is recorded as below 5%.

Take `CC1CCc2c(sc3nc(Cc4ccccc4)[nH]c(=O)c23)C1` (stereo not drawn) [Compound A-18]: the “Assay Value” is below 5%.

On to `O=C(CSc1nc2sc3c(c2c(=O)n1-c1ccccc1)CCCC3)c1cccs1` [Compound A-17], for which the “Assay Value” is reported as below 5%.

Regarding `O=C(COc1ccc2ccccc2c1)N/N=C/c1ccccc1` [Compound 31], the “Assay Value” is on record as below 5%.

As to `O=C(COc1cccc(Br)c1)N/N=C/c1ccc(Cl)cc1` [Compound 35], the “Assay Value” is below 5%.

As for `Cc1ccc(C)c(OCC(=O)N/N=C/c2ccc(CC(=O)O)cc2)c1C` [Compound 25], the “Assay Value” is below 5%.

With `Cc1cc(C)c(/C=N/NC(=O)COc2ccccc2)c(C)c1` [Compound 21], the “Assay Value” was below 5%.

Regarding `CC1CCCCN1C(=O)CSc1nc2sc3c(c2c(=O)n1-c1ccccc1)CCC3` (stereo not drawn) [Compound A-22], the “Assay Value” is recorded as below 5%.

For the compound `Oc1cccc2ccc(/C=C/c3ccc(OCc4ccccc4)cc3)nc12` [Compound B-19], the “Assay Value” was found to be 91.0%.

Consider `CC1CCN(C(=O)CSc2nc3sc4c(c3c(=O)[nH]2)CCCC4)CC1` [Compound A-25], for which the “Assay Value” is recorded as below 5%.

In the case of `Cc1ccc(OCC(=O)N/N=C/c2ccc(C(=O)O)cc2)c(C)c1` [Compound 22], the “Assay Value” is listed as below 5%.

Regarding `COc1ccccc1/C=N/NC(=O)COc1c(C)cc(C)cc1C` [Compound 18], the “Assay Value” was below 5%.

Regarding `Cc1ccc(/C=N/NC(=O)COc2ccccc2Br)c(C)c1` [Compound 34], the “Assay Value” is reported as below 5%.

Regarding `Cc1ccc(/C=N/NC(=O)COc2cccc(Br)c2)c(C)c1` [Compound 36], the “Assay Value” was below 5%.

Regarding `O=C(COc1ccc(Br)cc1)N/N=C/c1ccc(Cl)cc1` [Compound 38], the “Assay Value” is reported as below 5%.

Regarding `COc1cccc(/C=N/NC(=O)COc2cc(C)ccc2C(C)C)c1` [Compound 24], the “Assay Value” was below 5%.

For `Cc1cccc(OCC(=O)N/N=C/c2ccc(O)cc2)c1C` [Compound 23], the “Assay Value” is given as below 5%.
